# Measurements reported in ChEMBL document CHEMBL1128652, “Synthesis of the macrolide antibiotic, oxolide” (Bioorg Med Chem Lett, 1995).
# Activity calls are given as the source filed them. No cut-off for these calls is given here.
# Tested on: Haemophilus influenzae
# Assay: Antibacterial activity against gram-negative bacteria, Haemophilus influenzae; A - found to be active
# Format: functional, organism-based
smiles,measurement,value
CC[C@H]1OC(=O)[C@H](C)[C@@H](O[C@H]2C[C@@](C)(OC)[C@@H](O)[C@H](C)O2)[C@H](C)[C@@H](O[C@@H]2O[C@H](C)C[C@H](N(C)C)[C@H]2O)[C@@](C)(O)C[C@@H](C)[C@@H]2O[C@]1(C)[C@@H](N)[C@H]2C,Activity,Active
